In US9517278B2, “Compound and photoacoustic imaging contrast medium containing the compound” (CANON KABUSHIKI KAISHA, priority 2012, dated 2016):

Assays:
[1] = Evaluation of retentivity of compound in blood (fluorescent intensity of blood); type: in vivo, nude mouse
Experimental: In order to examine the retentivity of the compound in blood, various compounds were administered to veins of nude mouse tails and the amounts of compounds remaining in blood were evaluated. […] The method for producing the compound was as described in Example 1. In Table 4, k represents 1,000. For example, 5 k represents 5,000.
The retentivity of the compound in blood was evaluated as described below. Blood samples were taken from a mouse 1 hour, 3 hours, 1 day, 2 days, and 1 week after administration, and the fluorescent intensity of the blood was measured using IVIS (registered trademark) Imaging System 200 Series (produced by Caliper Life Science Inc.). The amount of administration to the mouse was 0.5 mg/kg in terms of the amount of dye. […] It is considered that access of serum protein to the near-infrared organic dye was limited by bonding the branched chain PEG to the near-infrared organic dye, accumulation into a liver was reduced and, as a result, the retentivity in blood was acquired.

colon 26 cell line = experiment: Tumor accumulation evaluated by photoacoustic imaging; type: in vivo; conditions: colon 26 tumor-bearing mouse, tail vein, 32 nmol as dye, 797 nm
Experimental: Photoacoustic signals were measured before a prepared compound was administered and at any given timing after administration by using the commercially available photoacoustic imaging apparatus (Nexus128, produced by Endra Inc.), so that three-dimensional reconfiguration data were obtained respectively. The photoacoustic intensity in a region of interest (ROI) was measured on the basis of the resulting three-dimensional reconfiguration data.
In the example according to the present invention, the amount of migration of the compound to a tumor mass was evaluated using a tumor-bearing model mouse. […] The fluorescent imaging was performed using IVIS (registered trademark) Imaging System and fluorescent intensity of a region of interest (ROI) of the tumor portion was measured.
In order to evaluate the tumor accumulation of the compound, a contrast medium was administered to a tail vein of a tumor-bearing mouse which had been transplanted a colon 26 cell line. […] Then, tumor accumulation 1 day after administration of the contrast medium into the tumor-bearing mouse was evaluated by photoacoustic imaging and fluorescence. […] Subsequently, the relative photoacoustic signal intensity 1 day after administration relative to before administration was calculated. The amount of accumulation into a tumor of the mouse was evaluated using fluorescence, as described below. […]

[2] = Tumor accumulation evaluated by fluorescence of tumor homogenate; type: in vivo; conditions: intravenous, 32 nmol in terms of the amount of dye, colon 26 tumor-bearing mouse, tail vein, 32 nmol as dye, 24 hours after administration
Experimental: The tumor accumulation was evaluated by an intraveneous injection of 100 microliters (13 nmol in terms of ICG) of various ICG-PEG aqueous solution into tumor-bearing mouse models, in which various cells were subcutaneously transplanted into BALB/c Slc-nu/nu mice. The mice were euthanized with a carbon dioxide gas 24 hours after the administration. Subsequently, each cancer tissue was enucleated. The cancer tissue was transferred to a plastic tube, 1% Triton-X100 aqueous solution 1.25 times the cancer tissue in weight was added, and a homogenate was produced using a plastic pestle. […] The amount of dye in the cancer tissue (% ID/g) was quantified by using IVIS (registered trademark) Imaging System 200 Series (produced by Caliper Life Science Inc.) and measuring the fluorescent intensity of the solution of the dye extracted from the tumor tissue and the standard solution for calibration in the state of the plastic tube.
In order to evaluate the tumor accumulation of the compound, a contrast medium was administered to a tail vein of a tumor-bearing mouse which had been transplanted a colon 26 cell line. […] Then, tumor accumulation 1 day after administration of the contrast medium into the tumor-bearing mouse was evaluated by photoacoustic imaging and fluorescence. […] The amount of accumulation into a tumor of the mouse was evaluated using fluorescence, as described below. […]

[3] = rat, ICG administered to the blood alone; cited from earlier work
[4] = in vivo; cited from earlier work
[5] = nude mouse, tail vein, 0.5 mg/kg as dye, ICG 1 day after administration = 1

## CC1(C)C(/C=C/C=C/C=C/C=C2/N(CCCCS(=O)(=O)[O-])c3ccc4ccccc4c3C2(C)C)=[N+](CCCCS(=O)(=O)[O-])c2ccc3ccccc3c21.[Na+] [ICG, Indocyanine Green]
[1]; in words
  Retentivity in blood: disappeared from the blood promptly
[1]; [5]
  Relative concentration in blood, 1 week after: 0.72
  Relative concentration in blood, 1 hour after: 36.7
  Relative concentration in blood, 3 hours after: 19
  Relative concentration in blood, 2 days after: 0.89
[1]; nude mouse, tail vein, 0.5 mg/kg as dye, ICG 1 day after administration = 1 (Table 6)
  Relative concentration in blood, 1 day after: 1
[1]; nude mouse, tail vein, 0.5 mg/kg as dye, concentration of ICG in blood 1 day after administration = 1 (Table 5)
  Relative concentration in blood (1 day after administration): 1
Colon 26 cell line
  Relative photoacoustic intensity (1 day after administration): 1
[2]
  tissue uptake at 24 h: 0.1 %ID/g
[3]
  Time after administration until photoacoustic signal intensity is reduced to the level of the blood: several tens of minutes
[4]
  Half-life in blood: about several minutes
